Experimental data as given in patent publication US20250326725A1, “PI4-Kinase Inhibitors and Methods of Using the Same” (The Board of Trustees of the Leland Stanford Junior …, priority 2019, published 2025).
pEC50, pIC50: −log10 of the molar value. Where “and” joins values, the source holds several entries; their conditions need not be identical. Identical values can stand only once.

Columns and labels:
PI4KIIIalpha = biological target: T1, PI4KIIIalpha (Homo sapiens, UniProt P42356); experiment: PI-kinase assay, PI4KIIIalpha (Table 4); format: biochemical
T1 construct: made in house; host or cells: COS-7 cells, transient transfection, anti-HA immunoprecipitate on protein G Sepharose beads
T1 sequence (P42356 whole entry): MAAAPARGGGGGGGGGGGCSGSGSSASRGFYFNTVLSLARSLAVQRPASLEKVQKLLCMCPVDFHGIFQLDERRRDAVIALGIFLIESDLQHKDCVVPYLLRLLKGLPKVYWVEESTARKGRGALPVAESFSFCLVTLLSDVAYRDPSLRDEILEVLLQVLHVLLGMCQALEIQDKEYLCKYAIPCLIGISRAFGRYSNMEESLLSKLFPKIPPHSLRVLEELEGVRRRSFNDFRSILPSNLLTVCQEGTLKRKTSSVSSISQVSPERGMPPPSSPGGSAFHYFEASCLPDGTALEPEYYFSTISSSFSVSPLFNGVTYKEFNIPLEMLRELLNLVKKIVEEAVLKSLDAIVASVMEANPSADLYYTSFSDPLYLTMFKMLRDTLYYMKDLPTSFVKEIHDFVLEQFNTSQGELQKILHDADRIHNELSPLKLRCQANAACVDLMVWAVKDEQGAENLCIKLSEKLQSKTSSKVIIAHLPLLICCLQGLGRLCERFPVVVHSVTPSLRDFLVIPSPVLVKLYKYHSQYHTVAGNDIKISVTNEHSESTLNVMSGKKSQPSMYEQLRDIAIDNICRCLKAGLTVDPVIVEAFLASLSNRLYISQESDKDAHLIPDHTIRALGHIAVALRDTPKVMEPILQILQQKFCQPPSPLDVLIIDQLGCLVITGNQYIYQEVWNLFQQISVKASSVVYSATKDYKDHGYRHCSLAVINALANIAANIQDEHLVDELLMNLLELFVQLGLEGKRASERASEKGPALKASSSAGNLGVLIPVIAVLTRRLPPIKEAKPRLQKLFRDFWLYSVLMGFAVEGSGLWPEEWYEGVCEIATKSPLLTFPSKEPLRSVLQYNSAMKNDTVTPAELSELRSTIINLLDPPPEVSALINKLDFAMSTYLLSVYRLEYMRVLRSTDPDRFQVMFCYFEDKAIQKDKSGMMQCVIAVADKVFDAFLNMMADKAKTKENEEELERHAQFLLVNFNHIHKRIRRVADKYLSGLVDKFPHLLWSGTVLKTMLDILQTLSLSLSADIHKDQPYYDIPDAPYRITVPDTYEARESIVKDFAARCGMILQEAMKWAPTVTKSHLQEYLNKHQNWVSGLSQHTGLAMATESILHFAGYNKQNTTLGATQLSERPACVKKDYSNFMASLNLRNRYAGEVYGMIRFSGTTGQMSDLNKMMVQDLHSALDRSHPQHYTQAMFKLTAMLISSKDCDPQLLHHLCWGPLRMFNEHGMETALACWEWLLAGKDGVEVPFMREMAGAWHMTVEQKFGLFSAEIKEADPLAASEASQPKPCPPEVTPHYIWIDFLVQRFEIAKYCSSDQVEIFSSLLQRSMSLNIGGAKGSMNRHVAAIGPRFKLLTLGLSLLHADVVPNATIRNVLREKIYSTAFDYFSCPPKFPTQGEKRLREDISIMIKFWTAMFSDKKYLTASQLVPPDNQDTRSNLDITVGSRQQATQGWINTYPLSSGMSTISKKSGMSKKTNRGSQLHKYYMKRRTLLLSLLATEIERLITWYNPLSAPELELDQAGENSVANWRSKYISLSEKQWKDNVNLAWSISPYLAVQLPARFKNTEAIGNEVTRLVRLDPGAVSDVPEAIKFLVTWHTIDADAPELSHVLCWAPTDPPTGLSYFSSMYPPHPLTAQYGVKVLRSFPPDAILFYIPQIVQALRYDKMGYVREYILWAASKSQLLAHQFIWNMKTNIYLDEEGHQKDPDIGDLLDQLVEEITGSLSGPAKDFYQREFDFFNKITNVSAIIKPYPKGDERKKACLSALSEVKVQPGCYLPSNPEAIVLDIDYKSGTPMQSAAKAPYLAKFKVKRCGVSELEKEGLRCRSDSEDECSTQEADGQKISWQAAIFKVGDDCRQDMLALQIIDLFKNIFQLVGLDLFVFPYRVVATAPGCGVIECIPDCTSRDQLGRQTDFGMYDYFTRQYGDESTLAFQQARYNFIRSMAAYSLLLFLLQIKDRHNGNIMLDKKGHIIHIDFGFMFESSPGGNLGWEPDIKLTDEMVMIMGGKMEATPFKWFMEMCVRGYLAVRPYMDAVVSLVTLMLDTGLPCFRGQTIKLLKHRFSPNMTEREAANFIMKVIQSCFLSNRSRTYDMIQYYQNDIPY
Description: (§1) PI-kinase assay: Compounds are tested in C.1.1. PT kinase assays as described by Shokat et al., “A membrane capture assay for lipid kinase activity.” Nat. Protoc. 2007; 2(10):2459-66.
(§2) General methods of materials: In the assays described here, p110α-p85 complex and p110γ were acquired from Millipore. Assays were performed with La-phosphatidylinositol (Avanti) as described in Knight et al. Nat Protoc. 2007; 2 (10):2459-66. Inhibitor series were prepared 10% DMSO as 5× stocks for the assay. Assays of HsVps34 were performed as described in Knight et al, except that the final assay buffer composition used was changed to 20 mM HEPES 7.5, 100 mM NaCl, 3 mM MgCl, 1 mg/mL PI and 44 nM hvps34 was used in the assay. […] COS-7 cells were cultured in 10 cm dishes and transfected at 70% confluence with 10 μg of plasmid DNA (HA-tagged bovine PI4KIIIβ. HA-tagged human PI4KIIIα) using Lipofectamine 2000 and 5 ml Opti-MEM following the manufacturer's instructions. After 5 hours the transfection medium was replaced with 10 ml complete DMEM. 36 hrs post transfection, cells were washed once with 5 ml PBS (pH 7.4) and lysed in 1 ml of lysis buffer (1) on ice. Lysates were collected by scraping and after 15 min they were centrifuged at 13.000 rpm for 10 min. To the lysates was added 200 gi of protein G Sepharose 4 fast flow beads that were prewashed with PBS and lysis buffer and 2 sg of anti-HA antibody. The tubes were then incubated overnight at 4 degrees C. in a tube rotator. The Sepharose beads in the lysate were washed twice with 150 mM NaCl in RIPA buffer, twice with RIPA buffer and once with kinase buffer (50 mM Tris/HCl, pH 7.5, 20 mM MgCl2, 1 mM EFTA, 1 mM PtdIns, 0.4% Triton X-100, 0.5 mg/mL BSA) and finally the beads were resuspended in 200 μL kinase buffer. Kinase reactions were run in a mixture of 45 μL of PI buffer (1 mM P1 in kinase buffer), 10 μL of immunoprecipitated beads, 2 µL of inhibitors (dissolved and diluted in DMSO) or DMSO and 5 μL of [γ-^32P]-ATP (1 mM and 2 μCi/tube). The immunoprecipitates in PI buffer were pre-incubated with the drugs for 20 min prior the initiation of kinase reaction by adding ATP and the reactions were carried out for 30 min in 15 ml polyproplyene tubes. Reactions were terminated by addition of 3 ml of CHCl3:CH3OH:HCl (200:100:0.75) followed by 0.6 ml of 0.61N HCl to induce phase separation. The mixtures were vortexed, centrifuged at 2000 rpm for 2 min and the upper phase was discarded. To the lower phase was added 1.5 ml of CHCl3:CH3OH:0.6N HCl (3:48:47) and the mixture vortexed and centrifuged at 2000 rpm for 2 ruin. The lower phase was then transferred to counting vials and evaporated. Samples were counted in a scintillation beta counter after adding 5 ml of Instafluor (Perkin-Elmer).
(§3) Selected compounds of Tables 1-3 were prepared and tested for inhibition activity in a variety of kinase assays.

PI4KIIIbeta = biological target: T2, PI4KIIIbeta (Bos taurus, UniProt O02810); experiment: PI-kinase assay, PI4KIIIbeta (Table 4); format: biochemical, bovine
T2 construct: made in house; host or cells: COS-7 cells, transient transfection, anti-HA immunoprecipitate on protein G Sepharose beads
T2 sequence (O02810 whole entry): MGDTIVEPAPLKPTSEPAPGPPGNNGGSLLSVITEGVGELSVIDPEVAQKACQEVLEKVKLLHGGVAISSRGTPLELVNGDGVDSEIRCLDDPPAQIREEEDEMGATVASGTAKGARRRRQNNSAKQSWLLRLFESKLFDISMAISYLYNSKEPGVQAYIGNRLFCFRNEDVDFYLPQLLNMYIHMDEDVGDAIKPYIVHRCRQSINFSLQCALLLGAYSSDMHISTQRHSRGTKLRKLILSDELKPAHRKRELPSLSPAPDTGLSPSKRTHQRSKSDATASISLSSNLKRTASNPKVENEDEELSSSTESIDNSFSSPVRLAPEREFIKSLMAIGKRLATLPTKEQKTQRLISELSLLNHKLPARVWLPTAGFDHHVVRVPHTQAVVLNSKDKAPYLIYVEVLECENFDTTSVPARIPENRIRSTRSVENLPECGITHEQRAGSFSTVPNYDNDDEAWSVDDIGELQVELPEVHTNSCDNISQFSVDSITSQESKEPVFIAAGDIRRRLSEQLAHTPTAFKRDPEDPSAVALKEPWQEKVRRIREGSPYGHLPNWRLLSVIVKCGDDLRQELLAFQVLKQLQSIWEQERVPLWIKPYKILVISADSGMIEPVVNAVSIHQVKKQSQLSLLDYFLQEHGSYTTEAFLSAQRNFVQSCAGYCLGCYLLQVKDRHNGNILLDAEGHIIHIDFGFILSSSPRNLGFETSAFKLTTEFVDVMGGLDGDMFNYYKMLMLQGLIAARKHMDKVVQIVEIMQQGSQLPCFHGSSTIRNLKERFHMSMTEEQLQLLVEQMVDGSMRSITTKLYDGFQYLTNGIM
Description: as §1, §2, §3

[1] = system: BK virus (Polyomaviridae); experiment: BK virus antiviral assay (EC50); format: cell-based; settings: Betapolyomavirus hominis
[2] = Cell toxicity (CC50) in BK virus assay
HCV = experiment: Anti-HCV assay (EC50); format: cell-based; settings: Hepatitis C virus, read-out: HCV EC50
Description: Anti-HCV assay: Anti-HCV assays are performed as described by Cho et al. “Identification of a class of HCV inhibitors directed against the nonstructural protein NS4B.” Sci. Transl. Med. 2011; 2(15):15ra6.

HRV = experiment: Rhinovirus antiviral assay (EC50); format: cell-based; settings: Human rhinovirus sp.
EV71 = EV71 antiviral assay (EC50); format: cell-based, Enterovirus 71; settings: Enterovirus A, EV71
EV68 = EV68 antiviral assay (EC50); format: cell-based
[3] = Microsomal stability, human liver microsomes; format: in vitro ADME; settings: for half-life: read-out: HLM/MLM (t ½ min): HLM
[4] = Microsomal stability, mouse liver microsomes; format: in vitro ADME
[5] = Caco-2 permeability assay; format: in vitro ADME; settings: human, read-out: Caco2 Papp × 1e−6 cm/s
Description: Compounds of interest were tested in a variety of cell-based assays for antiviral activity.

[6] = system: JC virus (Polyomaviridae); experiment: JC virus antiviral assay (EC50); format: cell-based; settings: JC polyomavirus
[7] = Cell toxicity (CC50) in HRV assay; settings: human, HRV CC50
[8] = Cell toxicity (CC50) in EV71 assay; settings: EV71 CC50
cells (EV71 assay) = experiment: Cell toxicity (CC50) in EV71 assay
[9] = Cell toxicity (CC50) in EV68 assay; settings: EV68 CC50
[10] = Cell toxicity (CC50) in JC virus assay
[11] = system: Human HPV (Papillomaviridae); experiment: Human HPV antiviral assay (EC50); format: cell-based, human papilloma virus; settings: Human papillomavirus, read-out: Human HPV (Papillomaviridae) EC50
HeLa S3 cells = experiment: Cell toxicity (CC50) in HRV assay; settings: human
[12] = Cell toxicity (CC50) in HPV assay
cells (EV68 assay) = experiment: Cell toxicity (CC50) in EV68 assay
lung cancer cell lines [13] = experiment: PI4P levels in lung cancer cell lines; format: cell-based, human; settings: panel of lung cancer cell lines
Description: (§4) Human lung cancer cells (A549, H1299, H460, H23, H2122, and H3122) were cultured in RPMI 1640 containing 10% FBS. Cells were maintained at 37° C. in an incubator with a humidified atmosphere containing 5% CO2.
(§5) To assess the anti-cancer activity of exemplary PI4K antagonists, a panel of lung cancer cell lines annotated for the presence or absence of PI4K amplifications were treated with PI4K inhibitors (IN-9, TN-10, or compound B) that have greater than 1000-fold selectivity […] PI4KIIIβ over class I and class III PI3K family members. […] IC50 values were even lower with the presence of PI4K amplifications.
(§6) PI4KIIIβ is a target in human cancers, including lung adenocarcinoma. (FIG. 1A). PI4P concentrations in H2122 cells (dots) treated in triplicate (dots) with Compound B or vehicle dimethyl sulfoxide (DMS). (FIG. 1B) Relative densities of PI4-kinase-amplified (red) and -diploid (black) human lung adenocarcinoma cell lines determined by WST-1 assays after 5 days of Compound B treatment. Results expressed relative to the lowest dose, which was set at 100%. (FIG. 1B, right panel) Half maximal inhibitory (IC50) concentrations of compound B determined from FIG. 1B, left panel. (FIG. 1C) Migrated and invaded 1-23 human lung adenocarcinoma cells in Transwell chambers were photographed (images) and counted (bar graphs) after treatment with compound B. Results expressed relative to DMSO-treated cells, which were set at 1.0. (FIG. 1C, right panel). Colonies formed by H2122 human lung cancer cells in soft agarose (FIG. 1D) and on plastic (FIG. 1E) were photographed (images) and counted (bar graphs) after 7 days of treatment with the indicated doses of compound B or vehicle DMSO (0 M). Results expressed relative to DMSO control, which were set at 1.0. PI4-kinase inhibition leads to selective cytotoxicity for cancer cells (FIG. 1F).

lung cancer cell lines [14] = experiment: Cell proliferation in monolayer culture (WST-1); format: cell-based, human; settings: panel of lung cancer cell lines
Description: as §4, §5, §6

lung cancer cell lines [15] = experiment: Migration and invasion in Boyden chambers; format: cell-based, human; settings: panel of lung cancer cell lines
Description: as §4, §5, §6

lung cancer cell lines [16] = experiment: Colony formation in soft agar and on plastic; format: cell-based, human; settings: panel of lung cancer cell lines
Description: as §4, §5, §6

[17] = read-out: HLM/MLM (t ½ min): MLM
[18] = with ritonavir (concentration not stated), + Ritonavir, read-out: HLM/MLM (t ½ min) + Ritonavir: MLM

| SMILES | pIC50 (PI4KIIIalpha) | pIC50 (PI4KIIIbeta) | pEC50 [1] | CC50 [2] [µM] | pEC50 (HRV) | pEC50 (EV71) | pEC50 (EV68) | pEC50 [6] | CC50 [7] [µM] | CC50 [8] [µM] | CC50 [9] [µM] | CC50 [10] [µM] | further results |
| --- | --- | --- | --- | --- | --- | --- | --- | --- | --- | --- | --- | --- | --- |
| COc1ccc(-c2sc(NC(C)(C)C3CCOCC3)nc2C)cc1S(=O)(=O)Nc1c(C)cccc1F [Compound C] | < 5.00 | > 7.00 | 7.15 | > 100 |  |  |  |  |  |  |  |  |  |
| COc1ccc(-c2sc(NC(C)(C)c3ccccc3)nc2C)cc1S(=O)(=O)NC1CCN(C(C)=O)CC1 [Compound S-42] | < 5.00 | > 7.00 |  |  | 9.05 | 9.52 | 8.72 and 8.80 | 5.09 | 100 | 103 | 100 | > 150 | pEC50 (HCV): 9.15; HLM/MLM (t ½ min) + Ritonavir: HLM [3]: 159 min; half-life [3]: 10 min; half-life [4, 17]: 14 min; half-life [4, 18]: 82 min; Papp [5]: 14 ×10⁻⁶ cm/s; CC50 (cells (EV71 assay)): 100 µM |
| COc1ccc(-c2sc(NC(C)(C)c3ccccn3)nc2C)cc1S(=O)(=O)Nc1c(C)cccc1F [Compound S-45] | < 5.00 | > 7.00 |  |  | 9.30 | 9.52 | 8.70 and 8.54 | 5.33 | 66.2 | 87.3 | 73.2 | > 150 | pEC50 (HCV): 9.40; HLM/MLM (t ½ min) + Ritonavir: HLM [3]: 159 min; half-life [3]: 14 min; half-life [4, 17]: 10 min; half-life [4, 18]: 67 min; pEC50 [11]: 5.28; CC50 (HeLa S3 cells): 52 µM; CC50 [12]: 77 µM; CC50 (cells (EV71 assay)): 77 µM; CC50 (cells (EV68 assay)): 38 µM |
| COc1ccc(-c2sc(NC(C)C3CCOCC3)nc2C)cc1S(=O)(=O)Nc1c(C)cccc1F (centres unmarked) [Compound S-76] |  |  | > 9.22 | 27 | 8.72 | 8.74 | 8.30 |  | 9.3 | 36 | 9.4 |  |  |
| Nc1ccn(C[C@@H](CO)OCP(=O)(O)O)c(=O)n1 [PC1, cidofovir, reference compound] |  |  | 6.51 | > 100 |  |  |  | 4.53 |  |  |  | > 150 |  |
| Nc1nc2c(ncn2CCOCP(=O)(O)O)c(=O)[nH]1 [PC2, 9-[2-(phosphono-methoxy)ethyl]guanine, reference compound] |  |  |  |  |  |  |  |  |  |  |  |  | pEC50 [11]: 5.55; CC50 [12]: > 150 µM |
| COc1ccc(-c2sc(NC(=O)C3CCCC3)nc2C)cc1S(=O)(=O)Nc1ccc(O)cc1 [PI4KIIIbeta-IN-9] |  |  |  |  |  |  |  |  |  |  |  |  | PI4P levels (lung cancer cell lines [13]): decreased PI4P levels in a dose-dependent fashion; cell proliferation in monolayer culture (lung cancer cell lines [14]): reduced cell proliferation in monolayer culture; migration and invasion in Boyden chambers (lung cancer cell lines [15]): reduced; colony formation in soft agar and on plastic (lung cancer cell lines [16]): reduced |
